What was measured:
[1] = tested on: patients with multiple sclerosis with problematic spasticity; assay: Ashworth score of spasticity, randomized placebo-controlled study; type: in vivo, human; conditions: baseline to 13 weeks follow-up (visit 7)
[2] = tested on: patients with multiple sclerosis; assay: category-rating scales, patient reporting of secondary outcomes; type: in vivo, human; conditions: category rating scale
[3] = tested on: patients with multiple sclerosis; assay: patient assessment of treatment benefit at visit 8; type: in vivo, human
[4] = tested on: patients with multiple sclerosis; assay: adverse events reported by patients

How did the “Mean (SD) change in Ashworth score, upper-body muscle groups (baseline minus follow-up)” value [1] turn out when `CCCCCc1cc(O)c2c(c1)OC(C)(C)[C@@H]1CCC(C)=C[C@@H]21` (relative stereo) [delta-9-THC, (6aR-trans)-6a,7,8,10a-tetrahydro-6,6,9-trimethyl-3-pentyl-6H-dibenzo[b,d]pyran-1-ol] was run?
The value was 0.48 (4.70).

What about the “Depression: Deterioration” value ([2]; number of patients) of the same compound?
The value was 42.

And the “Depression: Improvement” value ([2]; number of patients)?
The value was 36.

What about the “Depression: Same” value ([2]; number of patients) of the same compound?
Its value is 47.

And the “Energy: Deterioration” value ([2]; number of patients)?
The value was 49.

And the “Energy: Improvement” value ([2]; number of patients)?
The value was 61.

And the “Energy: Same” value ([2]; number of patients)?
Its value is 63.

What about the “Irritability: Deterioration” value ([2]; number of patients) of the same compound?
Its value is 32.

What about the “Irritability: Improvement” value ([2]; number of patients) of the same compound?
Its value is 37.

What about the “Irritability: Same” value ([2]; number of patients) of the same compound?
Its value is 42.

What about the “Pain: Deterioration” value ([2]; number of patients) of the same compound?
Its value is 22.

And the “Pain: Improvement” value ([2]; number of patients)?
Its value is 64.

And the “Pain: Same” value ([2]; number of patients)?
The value was 43.

What about the “Shake/tremor: Deterioration” value ([2]; number of patients) of the same compound?
The value was 32.

What about the “Shake/tremor: Improvement” value ([2]; number of patients) of the same compound?
Its value is 52.

And the “Shake/tremor: Same” value ([2]; number of patients)?
Its value is 44.

And the “Sleep: Deterioration” value ([2]; number of patients)?
The value was 24.

What about the “Sleep: Improvement” value ([2]; number of patients) of the same compound?
Its value is 71.

What about the “Sleep: Same” value ([2]; number of patients) of the same compound?
Its value is 57.

What about the “Spasms: Deterioration” value ([2]; number of patients) of the same compound?
The value was 27.

What about the “Spasms: Improvement” value ([2]; number of patients) of the same compound?
The value was 81.

And the “Spasms: Same” value ([2]; number of patients)?
Its value is 49.

What about the “Spasticity: Deterioration” value ([2]; number of patients) of the same compound?
Its value is 47.

What about the “Spasticity: Improvement” value ([2]; number of patients) of the same compound?
The value was 89.

What about the “Spasticity: Same” value ([2]; number of patients) of the same compound?
Its value is 40.

What about the “Tiredness: Deterioration” value ([2]; number of patients) of the same compound?
Its value is 76.

What about the “Tiredness: Improvement” value ([2]; number of patients) of the same compound?
The value was 35.

What about the “Tiredness: Same” value ([2]; number of patients) of the same compound?
The value was 46.

What about the “Depression: Deterioration” value ([2]; percent of patients) of the same compound?
The value was “(34%)”.

What about the “Depression: Improvement” value ([2]; percent of patients) of the same compound?
Its value is “(29%)”.

What about the “Depression: Same” value ([2]; percent of patients) of the same compound?
Its value is “(38%)”.

And the “Energy: Deterioration” value ([2]; percent of patients)?
The value was “(28%)”.

And the “Energy: Improvement” value ([2]; percent of patients)?
Its value is “(35%)”.

What about the “Energy: Same” value ([2]; percent of patients) of the same compound?
Its value is “(36%)”.

And the “Irritability: Deterioration” value ([2]; percent of patients)?
The value was “(29%)”.

And the “Irritability: Improvement” value ([2]; percent of patients)?
The value was “(33%)”.

And the “Irritability: Same” value ([2]; percent of patients)?
Its value is “(38%)”.

What about the “Pain: Deterioration” value ([2]; percent of patients) of the same compound?
Its value is “(17%)”.

What about the “Pain: Improvement” value ([2]; percent of patients) of the same compound?
The value was “(50%)”.

What about the “Pain: Same” value ([2]; percent of patients) of the same compound?
The value was “(33%)”.

What about the “Shake/tremor: Deterioration” value ([2]; percent of patients) of the same compound?
The value was “(25%)”.

And the “Shake/tremor: Improvement” value ([2]; percent of patients)?
The value was “(41%)”.

What about the “Shake/tremor: Same” value ([2]; percent of patients) of the same compound?
Its value is “(34%)”.

What about the “Sleep: Deterioration” value ([2]; percent of patients) of the same compound?
The value was “(16%)”.

What about the “Sleep: Improvement” value ([2]; percent of patients) of the same compound?
Its value is “(47%)”.

What about the “Sleep: Same” value ([2]; percent of patients) of the same compound?
Its value is “(38%)”.

And the “Spasms: Deterioration” value ([2]; percent of patients)?
Its value is “(22%)”.

What about the “Spasms: Improvement” value ([2]; percent of patients) of the same compound?
The value was “(49%)”.

And the “Spasms: Same” value ([2]; percent of patients)?
Its value is “(29%)”.

What about the “Spasticity: Deterioration” value ([2]; percent of patients) of the same compound?
The value was “(27%)”.

And the “Spasticity: Improvement” value ([2]; percent of patients)?
The value was “(51%)”.

And the “Spasticity: Same” value ([2]; percent of patients)?
The value was “(23%)”.

And the “Tiredness: Deterioration” value ([2]; percent of patients)?
Its value is “(48%)”.

What about the “Tiredness: Improvement” value ([2]; percent of patients) of the same compound?
Its value is “(22%)”.

What about the “Tiredness: Same” value ([2]; percent of patients) of the same compound?
The value was “(29%)”.

And the “Symptom Improvement, Bladder: No” value ([3]; number of patients)?
Its value is 97.

What about the “Symptom Improvement, Bladder: Yes” value ([3]; number of patients) of the same compound?
Its value is 67.

And the “Symptom Improvement, Pain: No” value ([3]; number of patients)?
The value was 64.

What about the “Symptom Improvement, Pain: Yes” value ([3]; number of patients) of the same compound?
The value was 64.

And the “Symptom Improvement, Spasticity: No” value ([3]; number of patients)?
The value was 73.

What about the “Symptom Improvement, Tremor: No” value ([3]; number of patients) of the same compound?
The value was 67.

And the “Symptom Improvement, Tremor: Yes” value ([3]; number of patients)?
Its value is 44.

What about the “Symptom Improvement, Bladder: No” value ([3]; percent of patients) of the same compound?
The value was 59%.

And the “Symptom Improvement, Bladder: Yes” value ([3]; percent of patients)?
Its value is 40%.

And the “Symptom Improvement, Pain: No” value ([3]; percent of patients)?
Its value is 50%.

And the “Symptom Improvement, Pain: Yes” value ([3]; percent of patients)?
Its value is 50%.

What about the “Symptom Improvement, Spasticity: No” value ([3]; percent of patients) of the same compound?
The value was 40%.

What about the “Symptom Improvement, Spasticity: Yes” value ([3]; percent of patients) of the same compound?
The value was 60%.

And the “Symptom Improvement, Tremor: No” value ([3]; percent of patients)?
Its value is 60%.

What about the “Symptom Improvement, Tremor: Yes” value ([3]; percent of patients) of the same compound?
The value was 40%.

What about the “incidences of MS relapse” value ([4]; by comparison with placebo) of the same compound?
Its value is “greatly reduced”.

And the “Adverse Event: Blocked/insertion of suprapubic catheter” value ([4]; number reported)?
The value was 0.

And the “Adverse Event: Constipation” value ([4]; number reported)?
Its value is 0.

And the “Adverse Event: Grand mal seizure” value ([4]; number reported)?
The value was 0.

And the “Adverse Event: MS relapse or possible relapse” value ([4]; number reported)?
The value was 1.

And the “Adverse Event: Other” value ([4]; number reported)?
Its value is 11.

What about the “Adverse Event: Pneumonia” value ([4]; number reported) of the same compound?
Its value is 2.

What about the “Adverse Event: Urinary tract infection” value ([4]; number reported) of the same compound?
The value was 3.
